Values joined by “and” are separate entries in the source; they are usually repeats but may differ in a detail not shown here. Equal entries are not always repeated.

Data set [1] is described as follows: Schiff-base formation with L-alanine, NMR. The class given is physicochemical. As to conditions: 27°C (18 h) then 37°C, total 72 hours. The text has this:
Response to Reviewers' comments:
We wish to thank reviewers for their time and thoughtful review. Please find below point-by-point responses to reviewer queries. Associated changes in the manuscript are underlined.
Reviewer (your email indicates #3, the review letter indicates #4):
1. While Schiff-base formation may be reversible, the reverse reaction may not occur during the life of the protein. Considering KBU2046’s binding affinity is proposed to be driven by a single H-bonding interaction with the carbonyl in question, studies should be conducted to ensure the formation of a Schiff base is not occurring.
Response. To specifically examine Schiff-base formation, we incubated KBU2046 with L-alanine at 27°C (18 h) and then 37°C for a total 72 hours, and observed no change in 1H or 13C NMR spectra of drug from the original observed spectra for KBU2046 alone. This exposure […]
product in the presence of a biologically relevant, representative primary amine. These studies were conducted by co-author Karl Scheidt, Professor of chemistry at Northwestern University.
Attached to this letter is a detailed description of the experiment.
These new experimental findings are concordant with our other findings presented in the manuscript. […]

The target of data set [2] is T1, cysteine and glycine-rich protein 1 (Homo sapiens, UniProt P21291).
T1 construct: purchased Invitrogen
Description: ProtoArray binding, cysteine and glycine-rich protein 1. The note with it: 10 fold excess free KBU2046. How it is done: The ProtoArray® assay, using the Human Protein Microarray platform, was performed by Invitrogen. […]
followed by detection with FITC-streptavidin, and visualization by fluorescent microscopy (with equal exposure times). (d) Protein array hybridization. KBU2046-biotin was hybridized to ProtoArray® Human Protein Microarray’s at 0.5 and 10 µM with and without 10 fold excess free KBU2046. We first sought proteins that met the following criteria, and did so at both 0.5 and 10 µM concentrations of KBU2046-biotin (in the absence of free KBU2046): Z-Score greater than 2.5, Z-Factor greater than 0.5, CI P-value less than 0.05, negative control value <2,000 (relative fluorescence units; RFUs), and a signal/negative control signal of >10 and >5 for 10 µM and 0.5 µM conditions, respectively. This yielded 3 proteins, shown in table, for an initial hit rate of 0.03%. We then required free KBU2046 to inhibit binding by >75%. Of the two remaining candidates, we eliminated isovaleryl-CoA dehydrogenase (ICD). Its binding signal doubled on […]
suspected non-specific binding by the biotin-linker moiety. We deemed cysteine and glycine-rich protein 1 (CSRP1) our top priority protein, though its binding characteristics at 10 µM + free KBU2046 were similar to ICD, albeit not as extreme. We thus evaluated whether KBU2046- […]
There were two additional notable findings from protein array studies. […]

The test system of data set [3] is human PCa PC3-M cell orthotopic implants. Description: Murine orthotopic implantation model of human PCa, lung metastasis. Format: in vivo, mouse. How it is done:
Prostate cancer: orthotopic implantation: Orthotopic implantation of human GFP-PC3-M PCa cells into 6–8 week male Balb/c athymic mice (Charles River Laboratories) and quantification of distant metastasis was performed as described by us[37]. Treatment with KBU2046, incorporated into Harlan Teklad 2016S® chow, began 1 week prior to implantation. Animals were excluded from the analysis if they died and/or met the criteria for killing in the 7 day post-operative period. Experimental groups were randomly assigned to cages prior to the initiation of the study. Metastasis were scored in a blinded fashion. Specifically, animals were assigned an ID number, resultant histologic slides contained a separate pathological ID number, slides were scored in a random fashion, after which the two numbers were linked up.

For data set [4], the system named is protein phosphorylation in PC3-M and PC3 cells. Description: KinomeView phospho-motif antibody screen. As to conditions: 10 µM, 3 days, ± TGFβ. The class given is cell-based, human. How it is done:
The Kinoview™ and PhosphoScan™ assays were performed by Cell Signaling Technology Inc.
Supplementary Figure 10. Proteomic analysis of the effects of KBU2046 on the kinome. (a-c) Screening for effects on the kinome. PC3-M cells were pre-treated with 10 µM KBU2046, genistein or vehicle control for 3 days, then with ± TGFβ, as indicated. Resultant cell lysate, as well as lysate from tumors from mice treated with 150 mg/kg KBU2046 or control mice (from manuscript Figure 2a), were then probed with the KinomeView® panel of antibodies by Western blot. In instances where KBU2046 was inhibiting protein phosphorylation in cells and in tumors, a repeat experiment of PC3-M cells was conducted (Experiment #2). In addition to including PC3-M cells, as in Experiment #1, Experiment #2 expanded to examine effects on PC3 cells. (a) The identification of an 83 kDa band of interest (red arrows). This constitutes the only change […]
as in tumor tissue. […] (c) All […]
other Western blots of phospho-motif antibodies that were evaluated on initial screen. NI = tumor not informative; this denotes a tumor sample that yielded an abnormal coomassie blue staining pattern. Data from this sample was therefore not considered further.
(also on this page, place not known: cat #C32G12; tPE cat #2981; sRXY, FXs NI NI cat #2351; tXR cat #23C8D12; RXRXX(s/t) NI NI)
(1 picture or pasted object on this page, not shown here)

T1 sequence (P21291 whole entry): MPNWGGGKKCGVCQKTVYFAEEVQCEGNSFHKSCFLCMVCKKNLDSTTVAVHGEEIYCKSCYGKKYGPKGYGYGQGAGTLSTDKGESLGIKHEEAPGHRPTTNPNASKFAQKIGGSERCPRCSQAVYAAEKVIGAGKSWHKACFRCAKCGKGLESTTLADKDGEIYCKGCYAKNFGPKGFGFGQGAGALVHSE

For the molecule `O=C1c2ccccc2OCC1c1ccc(F)cc1` (racemic) [KBU2046, (±)-3(4-fluorophenyl)chroman-4-one], the “change in 1H or 13C NMR spectra (Schiff-base formation)” value in data set [1] was “no change”. For the same molecule, the “% inhibition by competitor” value in data set [2] (0.5 uM KBU2046-biotin) turned out to be 79%; in data set [2] (10 uM KBU2046-biotin) it was 33%. In data set [3] (KBU2046 in chow, dose-dependent), the decrease in metastasis entry is listed as “up to 92%”. Also, the suppression of metastasis in data set [3] (at a plasma concentration of 24 nM) is 92% and > 90%. Besides, the primary tumor growth result in data set [3] (tumor weight, mice of Fig. 2a) is “does not inhibit primary tumor cell growth”. Further, the “changes in protein phosphorylation” value in data set [4] was “only a single change”.
